Test results: patent US20140024030A1, “PRESELECTION OF SUBJECTS FOR THERAPEUTIC TREATMENT WITH OXYGEN SENSITIVE AGENTS BASED IN HYPOXIC STATUS” (priority 2010, published 2014)

Columns and labels:
[1] = test system: HCT116 human colon carcinoma xenograft; test: HCT116 xenograft model in nude mice (hypoxic tumor); assay type: in vivo; conditions: for efficacy at slowing tumor growth in HCT116 (high hypoxia) versus 786O (low hypoxia) tumors: comparison of HCT116 and 786O xenografts in nude mice
Description: Human tumor cell lines HCT116 (ATCC #CRL-247; Schroy P C, et al. Cancer 76: 201-209, 1995) and 786-O (ATCC #CRL-1932; Williams R D, et al. In Vitro 12: 623-627, 1976), were obtained from the American Type Culture Collection (Manassus, Va., USA) were cultured using routine methods until a sufficient number of cells were obtained for implantation. Studies were conducted on animals between 7 and 12 weeks of age at implantation. To implant HCT116 tumor cells into nude mice, the cells were trypsinized, washed in PBS and resuspended at a concentration of 75×10^6 cells/ml in McCoy's modified medium with 50% of BD Matrigel® Basement Membrane Matrix (BD Biosciences®, Bedford, Mass., USA). To implant 786-O tumor cells into nude mice, the cells were trypsinized as above, washed in PBS and resuspended at a concentration of 75×10^6 cells/ml in RPMI 1640 medium with 50% of BD Matrigel® Basement Membrane Matrix. Using a 27 gauge needle and 1 cc syringe, 0.1 ml of the cell suspension was injected into the corpus adiposum of nude mice. […] The location permits palpation and measurement of the tumors using external calipers. Tumor volumes (V) were calculated by caliper measurement of the width (W), length (L) and thickness (T) of tumors using the following formula: V=0.5236×(L×W×T).

[2] = test system: locally advanced or metastatic NSCLC; conditions: maintenance, erlotinib 150 mg once daily; difference not statistically significant; cited from earlier work
JAK2V617F = JAK2V617F (Homo sapiens, UniProt O60674, V617F); conditions: cited from earlier work
Chain of JAK2V617F (O60674 whole entry V617F): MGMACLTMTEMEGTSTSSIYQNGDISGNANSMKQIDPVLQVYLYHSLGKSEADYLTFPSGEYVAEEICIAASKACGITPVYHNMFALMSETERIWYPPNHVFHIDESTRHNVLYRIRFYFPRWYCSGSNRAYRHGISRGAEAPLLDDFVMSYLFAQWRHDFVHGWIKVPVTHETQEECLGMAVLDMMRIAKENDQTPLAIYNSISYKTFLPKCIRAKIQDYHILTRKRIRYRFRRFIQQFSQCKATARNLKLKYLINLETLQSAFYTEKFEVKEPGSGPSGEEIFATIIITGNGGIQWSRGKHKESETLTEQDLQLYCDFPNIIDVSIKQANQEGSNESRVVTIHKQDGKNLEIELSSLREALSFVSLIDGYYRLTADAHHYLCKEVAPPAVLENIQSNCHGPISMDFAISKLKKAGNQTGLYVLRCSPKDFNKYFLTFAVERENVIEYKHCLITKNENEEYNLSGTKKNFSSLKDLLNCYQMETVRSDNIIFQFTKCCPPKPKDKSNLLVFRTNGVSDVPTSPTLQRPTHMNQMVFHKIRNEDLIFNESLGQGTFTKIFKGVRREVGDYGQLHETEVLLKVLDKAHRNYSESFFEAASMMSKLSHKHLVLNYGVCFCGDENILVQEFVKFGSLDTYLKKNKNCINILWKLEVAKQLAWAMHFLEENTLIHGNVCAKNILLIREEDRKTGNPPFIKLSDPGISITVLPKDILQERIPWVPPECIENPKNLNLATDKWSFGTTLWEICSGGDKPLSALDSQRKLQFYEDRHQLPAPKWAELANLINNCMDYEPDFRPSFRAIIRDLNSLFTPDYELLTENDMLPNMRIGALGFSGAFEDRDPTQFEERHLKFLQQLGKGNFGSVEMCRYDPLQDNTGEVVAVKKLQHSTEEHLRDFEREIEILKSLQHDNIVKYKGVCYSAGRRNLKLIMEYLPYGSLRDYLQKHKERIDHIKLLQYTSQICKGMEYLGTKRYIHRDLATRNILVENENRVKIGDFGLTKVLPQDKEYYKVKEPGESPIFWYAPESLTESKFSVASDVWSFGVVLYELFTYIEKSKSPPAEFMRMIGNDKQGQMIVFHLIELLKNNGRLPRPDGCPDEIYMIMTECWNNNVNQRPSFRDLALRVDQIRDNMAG

[3] = test system: locally advanced, unresectable or metastatic pancreatic cancer; conditions: 100 mg cohort, arms: gemcitabine plus erlotinib vs gemcitabine alone, cited from earlier work
[4] = test system: locally advanced or metastatic NSCLC; conditions: erlotinib 150 mg orally once daily; cited from earlier work
[5] = test system: advanced relapsed/refractory NSCLC; conditions: cited from earlier work
solid tumors = conditions: once-weekly dosing, evaluable patients; cited from earlier work
[6] = test system: GIST following progression on or intolerance to imatinib; conditions: 50 mg once daily Schedule 4/2; 5 of 55 patients; cited from earlier work
treatment-naïve RCC = conditions: cited from earlier work
[7] = test system: gastrointestinal stromal tumor (GIST); conditions: cited from earlier work
renal cancer = conditions: cited from earlier work
[8] = test system: metastatic pancreatic cancer; conditions: cited from earlier work
[9] = test system: metastatic colorectal cancer; conditions: arms: bevacizumab plus 5-FU/Leucovorin vs IFL regimen alone; cited from earlier work
[10] = test system: 786-O human renal carcinoma xenograft; test: 786-O xenograft model in nude mice (low hypoxia tumor); assay type: in vivo
Description: Human tumor cell lines HCT116 (ATCC #CRL-247; Schroy P C, et al. Cancer 76: 201-209, 1995) and 786-O (ATCC #CRL-1932; Williams R D, et al. In Vitro 12: 623-627, 1976), were obtained from the American Type Culture Collection (Manassus, Va., USA) were cultured using routine methods until a sufficient number of cells were obtained for implantation. Studies were conducted on animals between 7 and 12 weeks of age at implantation. To implant HCT116 tumor cells into nude mice, the cells were trypsinized, washed in PBS and resuspended at a concentration of 75×10^6 cells/ml in McCoy's modified medium with 50% of BD Matrigel® Basement Membrane Matrix (BD Biosciences®, Bedford, Mass., USA). To implant 786-O tumor cells into nude mice, the cells were trypsinized as above, washed in PBS and resuspended at a concentration of 75×10^6 cells/ml in RPMI 1640 medium with 50% of BD Matrigel® Basement Membrane Matrix. Using a 27 gauge needle and 1 cc syringe, 0.1 ml of the cell suspension was injected into the corpus adiposum of nude mice. The corpus adiposum is a fat body located in the ventral abdominal vicera in the right quadrant of the abdomen at the juncture of the os coxae (pelvic bone) and the os femoris (femur). The location permits palpation and measurement of the tumors using external calipers. Tumor volumes (V) were calculated by caliper measurement of the width (W), length (L) and thickness (T) of tumors using the following formula: V=0.5236×(L×W×T). Animals were randomized into treatment groups so that the average tumor volumes of each group were similar at the start of dosing.
A tumor model in which the tumors have relatively high and low levels of LDH5, indicating high and low levels of hypoxia, using human tumor cell lines HCT116 and 786-O was established as set forth in the previous example.
As above, HCT116 and 786-O cells were cultured and implanted into nude mice using the methods in the previous example. Tumor growth was measured using calipers. Prior to treatment with the various agents, tumors were permitted to develop in vivo until they reached approximately 150 mm^3 in volume, which typically required 2-3 weeks following implantation. Animals were randomized into treatment groups so that the average tumor volumes of each group were similar at the start of dosing.
Tumor volume was monitored throughout the course of the study, until up to about 40 days from the date of tumor implantation. The exact number of days of the study depended on a number of factors including, for example, the number of days from implantation for the tumors to reach the desired volume.

[11] = test system: metastatic colorectal cancer; conditions: bevacizumab and chemotherapy vs bevacizumab and chemotherapy alone, cited from earlier work; for median PFS: oxaliplatin stratum, arms: panitumumab
[12] = test system: metastatic colorectal cancer; conditions: bevacizumab plus 5-FU/Leucovorin vs 5-FU/Leucovorin alone; not statistically significant; cited from earlier work
[13] = test system: EGFR-expressing, metastatic carcinoma of the colon or rectum (mCRC); conditions: panitumumab 6 mg/kg every two weeks plus best supportive care; cited from earlier work

In the case of `C#Cc1cccc(Nc2ncnc3cc(OCCOC)c(OCCOC)cc23)c1` [erlotinib], the “efficacy at slowing tumor growth in HCT116 (high hypoxia) versus 786O (low hypoxia) tumors” value [1] is listed as “more effective at slowing tumor growth in tumors with high levels of hypoxia”, the “tumor growth rate versus control” value ([1]; erlotinib 1x/week P.O., p=0.0224) is listed as “reduced the growth rate of the tumor as compared to control” and the overall survival [2] is listed as 12 weeks. For the same molecule, the JAK2V617F activity (JAK2V617F) was “potent inhibitor of JAK2V617F activity”, the progression free survival ([3]; p=0.006) was 3.8 months and the survival ([3]; p=0.028) was 6.4 months. The median response duration [4] was 34.3 weeks, the progression free survival [4] was 9.9 weeks and the survival [4] was 6.7 months. For the same molecule, the tumor response [4] was 8.9%.

For `CC(C)c1cc(-c2nnc(O)n2-c2ccc3c(ccn3C)c2)c(O)cc1O` [ganetespib], the “efficacy at slowing tumor growth in HCT116 (high hypoxia) versus 786O (low hypoxia) tumors” value [1] is given as “not found to work better in the tumors with a higher level of hypoxia”, the disease control rate ([5]; broad population, single agent) is given as 54% and the “patients with durable, objective responses” value ([5]; patients with ALK rearrangement, four of eight) is given as 50%. The “patients who received ganetespib for 16 weeks or more” value ([5]; patients with ALK rearrangement, seven of eight) was 88%, the “patients with tumor shrinkage” value ([5]; patients with ALK rearrangement, six of eight) was 75% and the disease control (solid tumors) was “more than half of all evaluable patients experienced disease control”.

For `CCN(CC)CCNC(=O)c1c(C)[nH]c(/C=C2\C(=O)Nc3ccc(F)cc32)c1C` [sunitinib], the “efficacy at slowing tumor growth in HCT116 (high hypoxia) versus 786O (low hypoxia) tumors” value [1] is given as “not found to work better in the tumors with a higher level of hypoxia”, the PR rate [6] is given as 9.1% and the “PFS versus IFN-α” value (treatment-naïve RCC; 50 mg sunitinib once daily Schedule 4/2) is given as “statistically significant advantage for sunitinib over IFN-α in the endpoint of PFS”. For the same molecule, the “median OS” value (treatment-naïve RCC; final analysis, arms: sunitinib vs IFN-α) was 114.6 weeks, the “ORR versus IFN-α arm” value (treatment-naïve RCC; in vivo) was “higher” and the “median OS” value ([7]; final analysis, sunitinib arm) was 72.7 weeks. The “time to tumor progression (TTP) versus placebo” value ([7]; interim analysis, 50 mg once daily Schedule 4/2) was “statistically significant advantage for sunitinib over placebo in TTP” and the “OS HR” value ([7]; sunitinib vs placebo, final analysis) was 0.876.

For “bevacizumab: recombinant humanized monoclonal IgG1 antibody that binds to and inhibits human vascular endothelial growth factor (VEGF)”, the “patients with decreased tumor size” value (renal cancer; arms: bevacizumab and interferon-alpha vs interferon-alpha alone) is listed as 30%, the “increase in progression-free survival time” value (renal cancer; interferon-alpha with bevacizumab vs interferon-alpha alone) is listed as “about 5 months” and the “tumor growth versus control” value ([1]; bevacizumab 4 mg/kg i.p., p=0.0424) is listed as “reduced the growth of the tumor as compared to control”. The “efficacy at slowing tumor growth in HCT116 (high hypoxia) versus 786O (low hypoxia) tumors” value [1] was “more effective at slowing tumor growth in tumors with high levels of hypoxia”, the “tumor growth versus control” value ([1]; lower dose of bevacizumab (1 mg/kg) i.p., p=0.1274) was “small trend to decreased tumor growth” and the “progression free survival HR” value ([8]; bevacizumab vs placebo, both with gemcitabine and erlotinib, P=0.0002) was 0.73. For the same molecule, the median overall survival ([8]; bevacizumab, gemcitabine and erlotinib arm (306 patients)) was 7.1 months, the progression-free survival [9] was 8.7 months and the “tumor burden versus control” value ([10]; higher dose of bevacizumab (4 mg/kg) i.p., p=0.011) was “greatest tumor burden”. The “tumor burden versus control” value ([10]; low dose bevacizumab (1 mg/kg) i.p., p=0.437) was “no significant difference in tumor burden”, the “median PFS” value [11] was 10.5 months and the “improvement in median survival” value [12] was 29%.

For “panitumumab: recombinant, human IgG2 kappa monoclonal antibody that binds to the human EGFR”, the PFS [13] is listed as 96 days, the “efficacy at slowing tumor growth in HCT116 (high hypoxia) versus 786O (low hypoxia) tumors” value [1] is listed as “not found to work better in the tumors with a higher level of hypoxia” and the “median PFS” value [11] is listed as 8.8 months. The PFS hazard ratio ([11]; panitumumab, p-value=0.0024) was 1.44.
